Legend:
[1] = tested on: PD-1/PD-L1 blockade, Jurkat effector cells / CHO/TCRAct/PD-L1 cells; assay: Immune checkpoint blockade (ICB) assay (Promega): Jurkat ECs co-cultured with CHO/TCRAct/PD-L1 cells, NFAT luciferase readout; type: cell-based, human
Procedure: In order to explore the bioactivity of the synthesized compounds, a well-recognized immune checkpoint blockade (ICB) assay was performed. In the assay, artificial T cells, the Jurkat effector cells (Jurkat ECs), i.e., the Jurkat T cells overexpressing PD-1 and luciferase-coding gene under the control of the TCR-inducible NFAT response element, are contacted with artificial antigen-presenting CHO/TCRAct/PD-L1 cells, as illustrated in [31]. The latter is the CHO cells equipped with the TCR activator molecule, which delivers activation of Jurkat ECs, and also the PD-L1 protein, which provides a negative signal towards the activation of Jurkat ECs. Upon the blockade of the PD-1/PD-L1 interaction, activation of Jurkat ECs is increased, as we have shown before for several classes of therapeutic antibodies and small molecules.
The human PD-L1-expressing CHO-K1 cells overexpressing TCR activator (CHO/TCRAct/PD-L1) cells and Jurkat ECs T cells overexpressing PD-1 and carrying a luciferase reporter gene under the control of the Nuclear Factor of Activated T cells Response Element (NFAT-RE) were obtained from Promega and cultured in an RPMI-1640 medium (Biowest, Nuaillé, France) supplemented with 10% fetal bovine serum (FBS, Biowest, Nuaillé, France) and […] L-glutamine (Biowest, Nuaillé, France). G418 (250 µg/mL, InvivoGen, San Diego, CA, USA) and Hygromycin B Gold (50 µg/mL, InvivoGen, San Diego, CA, USA) were also added to the culture medium as selection antibiotics. CAKI 2, LNCap, PC-3, and MDA-MB-231 cells were purchased from the European Collection of Authenticated Cell Cultures (ECACC) and cultured according to the provided protocol.
For the analysis of biological activity of the analyzed compounds, an immune checkpoint blockade (ICB) assay was performed. For this, the culture of Jurkat effector cells (Jurkat-ECs) and […] was carried out. The assay was performed according to the protocol described in our previous works. All the experiments were performed three times as independent experiments.
Figure 2 Bioactivity of the indicated compounds. (A,B) The activity was monitored with a cell-based immune checkpoint blockade (ICB) assay. Jurkat ECs were contacted with pre-seeded CHO/TCRAct/PD-L1 cells in the presence of the indicated concentrations of the compounds (A) or durvalumab (B) as a positive control. The cells were co-cultured for 6 h and the luminescence signal was measured following the addition of the Bio-Glo substrate. The graphs show fold induction calculated versus either DMSO-treated (for small molecules) or untreated (for durvalumab) control (ctrl) cells. The results are mean ± SD from three independent experiments. […] (C) Analysis of the expression of PD-L1 in four human cancer cell lines compared to PD-L1-overexpressing CHO/TCRAct/PD-L1 cells. (D) Analysis of the expression of PD-L1 in MDA-MB-231 cells treated with either 4 or 5 compounds for 6 or 24 h.

PD-L1 protein = target: T1, PD-L1 protein (Homo sapiens, UniProt Q9NZQ7); assay: 1H NMR binding analysis, PD-L1 protein titrated with ligand; conditions: for Binding to PD-L1 by 1H NMR titration: PBS pH 7.4, 300 K, protein–ligand ratios up to 1:10
T1 construct: PD-L1 gene (amino acids 18–239); made in house; host or cells: E. coli BL21
Procedure: Apart from the HTRF assay, we performed the NMR [33, 34] binding analysis by recording the ^1H spectrum of the PD-L1 protein titrated with compound 4 (Figure 1).
The E. coli strain BL21 was transformed with a pET-21b plasmid carrying the PD-L1 gene (amino acids 18–239). The bacteria were cultured in LB at 37 °C until OD600nm of 0, 6 when the recombinant protein production was induced with 1 mM IPTG. The protein production continued overnight. The inclusion bodies were collected by centrifugation, washed twice with 50 mM Tris HCl, pH 8.0, containing 200 mM NaCl, 10 mM EDTA, 10 mM 2-mercaptoethanol, and 0.5% Triton X-100, followed by a single wash with the same buffer but with no Triton X-100. The washed inclusion bodies were resuspended overnight in 50 mM Tris HCl, pH 8.0, 6 M GuHCl, 200 mM NaCl, and 10 mM 2-mercaptoethanol and clarified with centrifugation. Refolding of PD-L1 was performed by dropwise dilution into 0.1 M Tris HCl, pH 8.0, containing 1 M L-arginine hydrochloride, 0.25 mM oxidized glutathione, and 0.25 mM reduced glutathione. The refolded protein was dialyzed three times against 10 mM Tris HCl, pH 8.0, containing 20 mM NaCl and purified by size exclusion chromatography using Superdex 75 and a dialysis buffer. The quality of the refolded protein was evaluated by SDS-PAGE and NMR.
NMR spectra were recorded in PBS, pH 7.4, containing 10% (v/v) of D2O added to the samples to provide the lock signal. Water suppression was carried out using the WATERGATE sequence. All the spectra were recorded at 300 K using a Bruker Avance 600 MHz spectrometer with the Cryo-Platform. The NMR spectrum was recorded at three different ligand/protein ratios from 0 to 10. The samples were prepared by adding small amounts of a 50 mM ligand stock solution in DMSO to the protein solution (0.20 mL) of the PD-L1 fragment at a concentration of 0.14 mM. The acquisition parameters for each spectrum were as follows: size of FID32768, number of scans: 32. The spectra were visualized using TopSpin 4.0.2. (Bruker, Billerica, MA, USA)

PD-1/PD-L1 complex = target: T2, PD-1/PD-L1 complex (Homo sapiens, UniProt Q9NZQ7); assay: HTRF (homogeneous time-resolved fluorescence) PD-1/PD-L1 binding assay (Cis-Bio); conditions: 5 nM hPD-L1, 50 nM hPD-1
T2 construct: purchased Cis-Bio
Procedure: To validate the activity toward PD-L1 of our compounds, we carried out an HTRF (homogeneous time-resolved fluorescence) experiment at two concentrations of the ligand (5 µM and 0.5 µM) (Table 1).
HTRF was carried out using a certified Cis-Bio assay according to the manufacturer’s guidelines. The experiments were carried out at 5 nM of h-L1 and 50 nM of hPD-1 in the final formulation at the 20 µL final volume in the well. To determine the half maximal inhibitory concentrations (IC50) of the tested compounds, the measurements were carried out on two individual dilution series unless stated otherwise. After mixing all the components according to the Cis-Bio protocol, the plate was left for 2 h incubation at room temperature followed by the TR-FRET measurement on a Tecan Spark 20M. […] The collected data was background-subtracted from the negative control, normalized on the positive control, averaged, and fitted with the normalized Hill’s equation to determine the IC50 value using Mathematica 12 (Princeton, NJ, USA).

T2 sequence (Q9NZQ7 19-238 limits assumed, one chain of several): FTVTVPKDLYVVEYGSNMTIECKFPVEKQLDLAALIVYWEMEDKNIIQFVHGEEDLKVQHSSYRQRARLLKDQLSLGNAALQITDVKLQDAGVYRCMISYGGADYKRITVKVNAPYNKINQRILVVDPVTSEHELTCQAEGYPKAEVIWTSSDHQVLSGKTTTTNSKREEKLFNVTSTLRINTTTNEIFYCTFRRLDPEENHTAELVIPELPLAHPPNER
T1 sequence (Q9NZQ7 18-239): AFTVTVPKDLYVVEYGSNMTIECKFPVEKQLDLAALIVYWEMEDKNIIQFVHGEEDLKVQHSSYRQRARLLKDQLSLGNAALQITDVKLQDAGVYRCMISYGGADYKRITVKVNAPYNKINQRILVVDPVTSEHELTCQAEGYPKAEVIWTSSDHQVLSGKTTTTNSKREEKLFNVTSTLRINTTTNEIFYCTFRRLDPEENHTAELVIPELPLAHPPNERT

| Structure (SMILES) | Promega Assay (active / not active) ([1]; cell-based PD-1/PD-L1 blockade bioassay) | Protein precipitation during NMR titration (PD-L1 protein; 1H NMR titration, compound 6 at protein–ligand ratio 1:10) | Binding to PD-L1 by 1H NMR titration (PD-L1 protein) | inhibition at 0.5 µM (PD-1/PD-L1 complex; 0.5 µM ligand, read-out: HTRF: Percentage of the Dissociated PD-1/PD-L1 Complex, 0.5 µM Ligand Conc.) [%] | inhibition at 5 µM (PD-1/PD-L1 complex; 5 µM ligand, read-out: HTRF: Percentage of the Dissociated PD-1/PD-L1 Complex, 5 µM Ligand Conc.) [%] | Activation of Jurkat ECs in the ICB assay ([1]; 6 h co-culture, fold induction vs control) | HTRF: Percentage of the Dissociated PD-1/PD-L1 Complex, 0.5 µM Ligand Conc. (PD-1/PD-L1 complex; 0.5 µM ligand) [%] | HTRF: Percentage of the Dissociated PD-1/PD-L1 Complex, 5 µM Ligand Conc. (PD-1/PD-L1 complex; 5 µM ligand) [%] |
| --- | --- | --- | --- | --- | --- | --- | --- | --- |
| Cc1c(COc2cc(OCc3cccc(C#N)c3)c(C(NCCCNc3cccc4c3C(=O)N(C3CCC(=O)NC3=O)C4=O)c3nnnn3C(C)(C)C)cc2Cl)cccc1-c1ccc2c(c1)OCCO2 (stereo not drawn) [compound 6, 3-((2-((1-(tert-butyl)-1H-tetrazol-5-yl)((3-((2-(2,6-dioxopiperidin-3-yl)-1,3-dioxoisoindolin-4-yl)amino)propyl)amino)methyl)-4-chloro-5-((3-(2,3-dihydrobenzo[b][1,4]dioxin-6-yl)-2-methylbenzyl)oxy)phenoxy)methyl)benzonitrile] | Not active | massive protein precipitation | does not present changes in the PD-L1 NMR protein spectra | 13.8 | 25.9 |  |  |  |
| Nc1cccc2c1C(=O)N(C1CCC(=O)NC1=O)C2=O (stereo not drawn) [pomalidomide] |  |  | lack of interaction |  |  | did not increase the activation of Jurkat ECs | 11.4 | 20.1 |
